The source of these data is ChEMBL document CHEMBL5291721, “A preclinical secondary pharmacology resource illuminates target-adverse drug reaction associations of marketed drugs” (Nat Commun, 2023).

For test [1], the target named is Glutamate receptor ionotropic, NMDA 1 (Rattus norvegicus, UniProt P35439).
In test [2] the target is T1, Equilibrative nucleoside transporter 1 (Homo sapiens, UniProt Q99808).
T1 sequence (Q99808 whole entry): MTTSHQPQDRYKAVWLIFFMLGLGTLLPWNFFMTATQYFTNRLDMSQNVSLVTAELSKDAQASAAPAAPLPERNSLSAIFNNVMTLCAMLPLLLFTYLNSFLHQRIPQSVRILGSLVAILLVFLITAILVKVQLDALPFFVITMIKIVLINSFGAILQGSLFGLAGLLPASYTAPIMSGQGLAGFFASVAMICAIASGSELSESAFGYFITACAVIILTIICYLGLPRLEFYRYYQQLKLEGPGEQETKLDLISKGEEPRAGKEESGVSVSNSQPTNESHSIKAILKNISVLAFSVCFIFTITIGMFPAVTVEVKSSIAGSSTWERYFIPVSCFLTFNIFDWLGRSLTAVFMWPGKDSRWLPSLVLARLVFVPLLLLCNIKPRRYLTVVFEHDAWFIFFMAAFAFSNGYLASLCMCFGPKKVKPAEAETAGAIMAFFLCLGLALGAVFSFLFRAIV

Test [3] concerns the target T2, Alpha-2B adrenergic receptor (Homo sapiens, UniProt P18089).
T2 sequence (P18089 whole entry): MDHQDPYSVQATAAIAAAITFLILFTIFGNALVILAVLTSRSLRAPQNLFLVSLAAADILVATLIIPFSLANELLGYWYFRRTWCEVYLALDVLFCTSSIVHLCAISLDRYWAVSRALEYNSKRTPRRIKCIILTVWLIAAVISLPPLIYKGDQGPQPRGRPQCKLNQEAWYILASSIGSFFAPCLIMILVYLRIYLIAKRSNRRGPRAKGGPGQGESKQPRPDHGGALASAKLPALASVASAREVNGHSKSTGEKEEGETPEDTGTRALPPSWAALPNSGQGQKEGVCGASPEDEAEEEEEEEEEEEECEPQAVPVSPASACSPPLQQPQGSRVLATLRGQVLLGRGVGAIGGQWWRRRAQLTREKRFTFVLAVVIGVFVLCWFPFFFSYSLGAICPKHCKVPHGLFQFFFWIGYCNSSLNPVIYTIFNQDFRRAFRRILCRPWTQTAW

In test [4] the target is Sodium-dependent dopamine transporter (Homo sapiens, UniProt Q01959).
The next test deals with T3, Progesterone receptor (Homo sapiens, UniProt P06401).
T3 sequence (P06401 whole entry): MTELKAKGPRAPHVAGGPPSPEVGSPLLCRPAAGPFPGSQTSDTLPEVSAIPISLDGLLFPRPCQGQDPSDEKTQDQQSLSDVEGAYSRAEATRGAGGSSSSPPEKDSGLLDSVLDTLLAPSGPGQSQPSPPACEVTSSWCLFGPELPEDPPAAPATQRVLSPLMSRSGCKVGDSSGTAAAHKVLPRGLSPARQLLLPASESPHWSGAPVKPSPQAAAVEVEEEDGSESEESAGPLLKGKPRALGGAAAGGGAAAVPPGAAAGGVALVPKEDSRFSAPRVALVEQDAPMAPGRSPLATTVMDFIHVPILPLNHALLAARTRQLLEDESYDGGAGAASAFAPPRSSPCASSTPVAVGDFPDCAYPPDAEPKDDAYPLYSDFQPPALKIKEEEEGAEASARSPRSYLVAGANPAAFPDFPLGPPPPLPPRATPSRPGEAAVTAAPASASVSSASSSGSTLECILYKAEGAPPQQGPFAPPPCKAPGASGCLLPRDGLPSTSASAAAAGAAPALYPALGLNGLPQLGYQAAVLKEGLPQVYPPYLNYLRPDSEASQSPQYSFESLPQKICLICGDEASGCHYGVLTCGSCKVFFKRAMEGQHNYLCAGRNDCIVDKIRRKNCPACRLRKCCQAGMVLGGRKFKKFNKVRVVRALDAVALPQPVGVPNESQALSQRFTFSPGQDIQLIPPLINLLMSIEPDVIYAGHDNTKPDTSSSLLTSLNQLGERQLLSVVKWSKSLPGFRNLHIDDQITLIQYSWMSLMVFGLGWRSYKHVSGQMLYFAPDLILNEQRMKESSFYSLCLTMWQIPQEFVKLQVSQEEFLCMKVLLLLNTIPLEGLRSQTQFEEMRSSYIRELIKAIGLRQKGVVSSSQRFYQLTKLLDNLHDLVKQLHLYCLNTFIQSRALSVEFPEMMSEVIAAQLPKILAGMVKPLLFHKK
In kind it is functional.

Test [5] addresses T4, Gastrin/cholecystokinin type B receptor (Homo sapiens, UniProt P32239).
T4 sequence (P32239 whole entry): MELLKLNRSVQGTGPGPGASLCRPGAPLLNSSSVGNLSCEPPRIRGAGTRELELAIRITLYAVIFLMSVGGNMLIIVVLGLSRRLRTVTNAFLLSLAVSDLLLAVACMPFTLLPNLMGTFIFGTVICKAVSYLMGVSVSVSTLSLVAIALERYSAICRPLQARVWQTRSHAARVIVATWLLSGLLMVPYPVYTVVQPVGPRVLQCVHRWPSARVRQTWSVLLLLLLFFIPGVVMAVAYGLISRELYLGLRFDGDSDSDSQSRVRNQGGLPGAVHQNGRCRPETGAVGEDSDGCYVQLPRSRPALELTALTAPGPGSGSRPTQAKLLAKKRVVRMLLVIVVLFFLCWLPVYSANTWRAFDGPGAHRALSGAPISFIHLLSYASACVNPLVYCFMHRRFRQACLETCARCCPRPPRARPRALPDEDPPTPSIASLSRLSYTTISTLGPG

Test [6] concerns the target T5, 5-hydroxytryptamine receptor 2C (Homo sapiens, UniProt P28335).
T5 sequence (P28335 whole entry): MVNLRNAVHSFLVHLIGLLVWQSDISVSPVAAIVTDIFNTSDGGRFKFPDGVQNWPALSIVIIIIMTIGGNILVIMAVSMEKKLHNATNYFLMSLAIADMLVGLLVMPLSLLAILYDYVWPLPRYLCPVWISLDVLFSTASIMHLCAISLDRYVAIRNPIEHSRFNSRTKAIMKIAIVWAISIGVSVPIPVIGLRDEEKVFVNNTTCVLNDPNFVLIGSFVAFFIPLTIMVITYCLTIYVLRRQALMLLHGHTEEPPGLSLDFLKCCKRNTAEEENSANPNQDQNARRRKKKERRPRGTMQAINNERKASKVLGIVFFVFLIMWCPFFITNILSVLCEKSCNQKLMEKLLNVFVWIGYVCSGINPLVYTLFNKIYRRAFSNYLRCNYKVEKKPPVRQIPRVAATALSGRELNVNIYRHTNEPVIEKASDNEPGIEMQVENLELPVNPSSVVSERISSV

Test [7] addresses Voltage-dependent L-type calcium channel subunit alpha-1C (Rattus norvegicus, UniProt P22002). In kind it is functional.
For test [8], the target named is Beta-2 adrenergic receptor (Homo sapiens, UniProt P07550).
Also: assay procedure not described here.

Chain of Beta-2 adrenergic receptor (P07550 whole entry): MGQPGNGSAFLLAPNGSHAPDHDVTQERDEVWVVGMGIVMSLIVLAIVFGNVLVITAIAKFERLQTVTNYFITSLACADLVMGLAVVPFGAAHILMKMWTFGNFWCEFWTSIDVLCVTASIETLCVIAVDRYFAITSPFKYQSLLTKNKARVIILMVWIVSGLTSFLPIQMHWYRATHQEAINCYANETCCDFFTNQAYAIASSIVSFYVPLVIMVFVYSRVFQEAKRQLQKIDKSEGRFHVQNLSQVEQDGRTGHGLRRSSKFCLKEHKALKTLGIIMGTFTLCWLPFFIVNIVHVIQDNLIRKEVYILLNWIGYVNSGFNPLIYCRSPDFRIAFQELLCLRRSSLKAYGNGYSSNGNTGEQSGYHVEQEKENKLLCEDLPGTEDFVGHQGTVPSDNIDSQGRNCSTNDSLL
Chain of Sodium-dependent dopamine transporter (Q01959 whole entry): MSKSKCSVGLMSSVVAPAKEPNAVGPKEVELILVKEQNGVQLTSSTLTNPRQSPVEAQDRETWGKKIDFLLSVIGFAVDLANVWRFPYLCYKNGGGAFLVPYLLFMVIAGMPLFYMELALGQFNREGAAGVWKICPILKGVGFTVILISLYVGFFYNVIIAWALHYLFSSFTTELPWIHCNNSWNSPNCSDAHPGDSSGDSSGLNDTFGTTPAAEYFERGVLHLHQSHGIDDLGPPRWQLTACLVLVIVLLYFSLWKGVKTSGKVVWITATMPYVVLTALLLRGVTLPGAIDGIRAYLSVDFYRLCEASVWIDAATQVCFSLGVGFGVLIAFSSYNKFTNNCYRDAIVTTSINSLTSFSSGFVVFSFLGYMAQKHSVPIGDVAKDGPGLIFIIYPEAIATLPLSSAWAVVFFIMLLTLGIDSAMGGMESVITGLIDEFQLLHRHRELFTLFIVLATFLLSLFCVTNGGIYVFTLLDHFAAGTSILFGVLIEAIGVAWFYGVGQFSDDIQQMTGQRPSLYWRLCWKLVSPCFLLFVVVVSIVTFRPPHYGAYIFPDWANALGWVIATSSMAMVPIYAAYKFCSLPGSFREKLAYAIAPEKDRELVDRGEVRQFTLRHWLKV
Chain of Voltage-dependent L-type calcium channel subunit alpha-1C (P22002 whole entry): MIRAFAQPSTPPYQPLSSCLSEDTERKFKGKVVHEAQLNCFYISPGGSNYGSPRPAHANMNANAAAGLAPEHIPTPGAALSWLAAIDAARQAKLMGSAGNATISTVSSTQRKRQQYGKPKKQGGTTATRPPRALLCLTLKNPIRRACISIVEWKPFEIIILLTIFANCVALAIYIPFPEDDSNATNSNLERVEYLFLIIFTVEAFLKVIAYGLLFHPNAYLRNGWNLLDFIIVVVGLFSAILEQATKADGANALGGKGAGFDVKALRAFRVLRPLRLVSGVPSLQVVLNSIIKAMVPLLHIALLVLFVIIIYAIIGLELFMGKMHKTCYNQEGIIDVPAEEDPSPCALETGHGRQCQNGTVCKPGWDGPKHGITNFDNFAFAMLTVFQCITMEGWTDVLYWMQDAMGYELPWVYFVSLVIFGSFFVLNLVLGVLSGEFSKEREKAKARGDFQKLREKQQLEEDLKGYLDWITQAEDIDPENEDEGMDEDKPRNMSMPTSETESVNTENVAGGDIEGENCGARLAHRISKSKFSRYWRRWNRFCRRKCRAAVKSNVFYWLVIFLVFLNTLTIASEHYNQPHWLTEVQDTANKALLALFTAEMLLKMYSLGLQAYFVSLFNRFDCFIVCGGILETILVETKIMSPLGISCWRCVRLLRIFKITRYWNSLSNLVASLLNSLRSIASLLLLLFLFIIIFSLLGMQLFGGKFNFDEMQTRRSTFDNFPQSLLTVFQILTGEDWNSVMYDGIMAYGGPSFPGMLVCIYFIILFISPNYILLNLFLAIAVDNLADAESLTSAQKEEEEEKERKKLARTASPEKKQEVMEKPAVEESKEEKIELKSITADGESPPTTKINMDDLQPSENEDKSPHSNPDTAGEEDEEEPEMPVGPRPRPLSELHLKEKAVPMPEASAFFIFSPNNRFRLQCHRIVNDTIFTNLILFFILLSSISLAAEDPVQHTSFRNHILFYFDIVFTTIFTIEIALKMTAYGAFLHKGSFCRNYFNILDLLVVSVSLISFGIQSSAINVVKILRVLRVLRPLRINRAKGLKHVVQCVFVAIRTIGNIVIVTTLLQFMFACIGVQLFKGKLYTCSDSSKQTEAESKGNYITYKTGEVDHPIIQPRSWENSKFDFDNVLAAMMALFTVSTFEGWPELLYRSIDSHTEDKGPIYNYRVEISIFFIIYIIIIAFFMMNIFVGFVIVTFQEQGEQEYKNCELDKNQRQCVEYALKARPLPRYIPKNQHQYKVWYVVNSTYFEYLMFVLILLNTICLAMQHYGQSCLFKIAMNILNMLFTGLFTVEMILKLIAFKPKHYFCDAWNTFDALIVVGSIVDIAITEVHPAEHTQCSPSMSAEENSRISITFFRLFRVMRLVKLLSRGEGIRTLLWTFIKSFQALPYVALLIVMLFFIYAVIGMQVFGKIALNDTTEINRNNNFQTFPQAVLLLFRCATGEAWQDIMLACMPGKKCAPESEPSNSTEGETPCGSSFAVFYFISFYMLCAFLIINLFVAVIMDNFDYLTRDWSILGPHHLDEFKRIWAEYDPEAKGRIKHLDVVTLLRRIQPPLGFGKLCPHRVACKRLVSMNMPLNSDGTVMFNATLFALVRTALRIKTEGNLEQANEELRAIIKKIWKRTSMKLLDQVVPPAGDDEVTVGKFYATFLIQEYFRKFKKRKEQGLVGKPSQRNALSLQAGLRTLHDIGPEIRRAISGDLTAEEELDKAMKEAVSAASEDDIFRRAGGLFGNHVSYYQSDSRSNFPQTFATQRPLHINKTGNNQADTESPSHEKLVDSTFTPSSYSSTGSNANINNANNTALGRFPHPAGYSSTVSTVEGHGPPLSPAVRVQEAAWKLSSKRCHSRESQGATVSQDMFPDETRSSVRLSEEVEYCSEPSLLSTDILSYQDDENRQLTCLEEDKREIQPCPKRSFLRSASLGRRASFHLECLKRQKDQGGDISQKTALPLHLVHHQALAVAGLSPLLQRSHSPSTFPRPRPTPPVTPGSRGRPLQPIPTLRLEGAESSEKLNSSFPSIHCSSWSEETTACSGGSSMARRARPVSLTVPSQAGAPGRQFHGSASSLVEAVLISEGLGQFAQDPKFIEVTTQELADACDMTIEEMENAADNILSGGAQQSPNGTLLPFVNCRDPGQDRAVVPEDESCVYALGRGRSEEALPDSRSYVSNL

The term AC50 denotes the midpoint of the concentration-response curve, whichever way the signal moves. Regarding `CCCCC[C@H](O)CC[C@@H]1[C@H]2Cc3cccc(OCC(=O)O)c3C[C@H]2C[C@H]1O` [TREPROSTINIL], the half-maximal activity concentration (AC50) (in test [1]; in [2]; in test [3]; in [4]; at Progesterone receptor; in test [5]) was above 30 µM throughout.

With `Cc1cccc(Nc2ccncc2S(=O)(=O)NC(=O)NC(C)C)c1` [TORSEMIDE], the concentration at half-maximal activity (AC50) in test [1] is above 10 µM; in test [2], above 10 µM; in test [4], above 10 µM; in [6] it was above 30 µM; on Progesterone receptor, above 10 µM; in test [7] it was above 10 µM. Moreover, the AC50 is above 30 µM in test [5] and above 10 µM in test [8].

Regarding `CCCCOC(=O)c1ccc(N)cc1` [BUTAMBEN], the AC50 (in test [1]; in [2]; in test [4]; in test [6]; on Progesterone receptor; in test [7]) was above 30 µM in each case. Also, the AC50 in test [5] and in test [8] was above 30 µM each time.

With `CCC1(CC)C(=O)NC(=O)N(C)C1=O` [METHARBITAL], the AC50 is above 10 µM in test [1]; above 10 µM in test [2]; above 10 µM in test [3]; above 10 µM in test [4]; above 30 µM in test [6]; above 10 µM on Progesterone receptor. The AC50 in [7] and in test [8] was above 10 µM in each case.

Consider `CC(=O)OCC1=C(C(=O)O)N2C(=O)[C@@H](NC(=O)CSc3ccncc3)[C@H]2SC1` [CEPHAPIRIN], for which the AC50 is above 10 µM in test [1]; above 10 µM in [2]; above 10 µM in [3]; above 10 µM in test [4]; above 30 µM in test [6]; above 30 µM on Progesterone receptor. Besides, the AC50 in test [7] and in test [8] was above 10 µM in each case.

Turning to `O=C(C[S+]([O-])Cc1ccco1)NC/C=C\COc1cc(CN2CCCCC2)ccn1` (stereo unspecified) [LAFUTIDINE], the AC50 in [1] was above 10 µM; in test [2] it was above 10 µM; in test [3] it was above 10 µM; in test [4] it was above 10 µM; in test [6], above 30 µM; on Progesterone receptor it was above 10 µM. The AC50 in test [7] and in [8] was above 10 µM in each case.

Consider `CNCCc1ccccn1` [BETAHISTINE], for which the AC50 (in [1]; in test [2]; in test [4]; in test [6]; at Progesterone receptor; in test [7]) was above 30 µM throughout. Also, the AC50 in test [5] and in test [8] was above 30 µM throughout.

`CCc1ccc(C(=O)C(C)CN2CCCCC2)cc1` (stereo unspecified) [EPERISONE]: the AC50 (in test [1]; in [2]; in [4]; in test [6]; on Progesterone receptor; in test [7]) was above 30 µM each time. Besides, the concentration at half-maximal activity (AC50) in [5] and in [8] was above 30 µM each time.

On to `CN(C)CCOC(=O)C(c1ccccc1)C1(O)CCCC1` (stereo unspecified) [CYCLOPENTOLATE], for which the AC50 in test [1] was above 10 µM; in test [2], above 30 µM; in test [3], above 10 µM; in test [4] it was above 30 µM; in [6] it was above 30 µM; at Progesterone receptor it was above 10 µM. The concentration at half-maximal activity (AC50) in [7] and in [8] was above 10 µM each time.

Consider `CC(C(=O)O)c1ccc(C(=O)c2ccccc2)s1` (stereo unspecified) [TIAPROFENIC ACID], for which the AC50 is above 10 µM in [1]; above 10 µM in test [2]; above 10 µM in test [3]; above 10 µM in test [4]; above 30 µM in test [6]; above 10 µM at Progesterone receptor. For the same compound, the concentration at half-maximal activity (AC50) in test [7] and in test [8] was above 10 µM each time.

Consider `COc1nc(C)nc(Cl)c1N=C1NCCN1` [MOXONIDINE], for which the AC50 (in test [1]; in [4]; in test [6]; at Progesterone receptor; in test [7]; in test [5]) was above 30 µM throughout.

With `C[C@@H](Cc1ccccc1)N(C)Cc1ccccc1` [BENZPHETAMINE], the AC50 is above 10 µM in test [1]; above 30 µM in test [2]; 2.8 µM in [3]; 9.9 µM in [4]; above 30 µM in test [6]; above 10 µM on Progesterone receptor. Further, the AC50 in [7] and in [8] was above 10 µM in each case.

Turning to `CC(C)CN(C[C@@H](O)[C@H](Cc1ccccc1)NC(=O)O[C@H]1CCOC1)S(=O)(=O)c1ccc(N)cc1`, the AC50 in test [1] was above 10 µM; in [2], above 10 µM; in test [4] it was above 10 µM; in test [6], above 30 µM; on Progesterone receptor, above 10 µM; in test [7], above 10 µM. The half-maximal activity concentration (AC50) in test [5] is above 30 µM; in test [8], above 10 µM.

As to `OCC(O)COc1ccc(Cl)cc1` (stereo unspecified), the half-maximal activity concentration (AC50) in test [1] was above 10 µM; in test [2] it was above 10 µM; in test [3] it was above 10 µM; in [4], above 10 µM; in test [6], above 30 µM; at Progesterone receptor it was above 10 µM. Moreover, the AC50 in test [7] and in test [8] was above 10 µM each time.

Consider `CCN(C(C)=O)c1cccc(-c2ccnc3c(C#N)cnn23)c1` [ZALEPLON], for which the AC50 in test [1] is above 10 µM; in test [2], above 30 µM; in [4] it was above 30 µM; in test [6], above 30 µM; at Progesterone receptor, above 30 µM; in test [7], above 10 µM. For the same compound, the AC50 in [5] and in [8] was above 30 µM each time.
